This experiment relates to Bronchial epithelial cells + Fibroblasts. Nature of the experiment: BioMAP BF4T system (IL-4 + TNF-α), scoring of readout parameters. Further details: key: 1 = modulated in desired direction, 0 = not (−1 if opposite). Type of experiment: cell-based, human. The following applies: for MMP-3 score / PAI-1 score: desired change decrease; for MMP-1 score / uPA score: desired change increase. The protocol:
In the “BF4T” system, bronchial epithelial cells, usually primary human bronchial epithelial cells, are cultured with fibroblasts, usually primary human fibroblasts, in the presence of TNF-α and IL-4. In addition to the factors, stimuli of interest that may be included in the culture medium include TGF-β, IL-5, II-10, IL-9, Tryptase, GM-CSF, II-17, CD40L, Histamine, IgE stimulated Mast Cells, LTB4 stimulated neutrophils, and PBMC stimulated with LPS or SAg.
Human neonatal fibroblasts (HDFn) and normal human bronchial epithelial cells (BrEPI) are used. Human lung fibroblasts (adult or neonatal) could also be used. HDFn are cultured in DMEM/F12 (50/50) from Cellgro, supplemented with LSGS kit (from Cascade Biologics); fetal bovine serum, 2% v/v, hydrocortisone 1 μg/ml, human epidermal growth factor 10 ng/ml, basic fibroblast growth factor 3 ng/ml and heparin 10 μg/ml, and penicillin/streptomycin amphotericin B solution (PSA). BrEPI are cultured in supplemented BEBM medium (Cambrex) at 2×10^4/ml. BrEPI may also be cultured with Bronchial/Tracheal Epithelial Cell Serum-Free Growth Medium (Cell Applications, Inc.) or F12/DMEM supplemented with 10 μg/ml rhu-insulin, 10 μg/ml transferrin, 10 ng/ml epidermal growth factor (EGF), 1 μM ethanolamine, 25 μg/ml aprotinin, 25 μg/ml glucose, 1 μM phosphoethanolamine, 5 μM triiodothyronine, 50 nM selenium, 1 nM hydrocortisone, 1 nM progesterone, 5 μM forskolin, 10 μM heregulin β177-244, 5 μl/ml fibronectin, 4 μl/ml bovine pituitary extract and retinoid acid. HDFn are plated for assays at 3×10^4 cells/ml. After 2 days, media is replaced with BrEPI media containing 10^4 BrEPI cells and cultured for a further 2 days.
Upon reaching confluency, the test agent or buffer control is added and the following are applied: 5 ng/ml of IL-4 and 5 ng/ml TNF-α (BF4T). After another 24 hours incubation (37° C., 5% CO2) the cultures are evaluated for the following parameters: CD90, Keratin 8/18, Eotaxin-3, I-TAC, ICAM-1, EGFR, IL-1α, IL-8, MCP-1, MMP-9, MMP-1, MMP-3, PAI-1, TGF-β3, TIMP-2, uPA, tPA, CD87 and VCAM-1. Additional readouts of interest may include IP-10, Elafin/SKALP, Endothelin-1, Gro-a, CD119, IL-6, GM-CSF, IL-16, FGF, PDGF, CD44, E-cadherin, CD40, IL-15Ralpha, CD1d, CD80, CD86, TARC, eotaxin-1, CD95, MCP-4 and MIP-3a. Other stimuli of interest include: TGFbeta, IL-5, II-10, IL-9, Tryptase, GM-CSF, II-17, CD40L, Histamine, IgE stimulated Mast Cells, LTB4 stimulated neutrophils, and PBMC stimulated with LPS or SAg.
Each screened compound is scored according to its modulation of the selected readout parameters. Compounds receive a positive score (score of 1) or negative score (score of 0) for each readout parameter set forth in Table 2 that is modulated in the desired direction. […] Parameters may be penalized by making the positive score a −1 for parameters where regulation is opposite to the desired direction.
Cell culture. Human umbilical vein endothelial cells (HUVEC) were pooled from multiple donors, cultured according to standard methods, and plated into microtiter plates at passage 4. Cell culture medium for all systems containing HUVEC included hydrocortisone. Coronary artery smooth muscle cells (CASM3C) and umbilical artery smooth muscle cells (HSM3C) were cultured according to standard procedures. Peripheral blood mononuclear cells (PBMC) were prepared from buffy coats from normal human donors according to standard methods. Monocyte-derived macrophages were differentiated in the presence of M-CSF for 7 d according to standard procedures. Human dermal fibroblasts were pooled from 3 donors, cultured according to standard methods, and plated confluent 24 h before stimulation. Cell culture medium for all systems containing fibroblasts and keratinocytes contained low hydrocortisone. Epidermal keratinocytes and bronchial epithelial cells from 3 donors were cultured according to standard procedures and pooled when plated into microtiter plates.

For `Cn1cnc([N+](=O)[O-])c1Sc1ncnc2nc[nH]c12` [Azathioprine], the MMP-3 score turned out to be 0, the PAI-1 score is 0, the MMP-1 score was 0 and the uPA score is 0.
With `CCc1oc2ccccc2c1C(=O)c1cc(Br)c(O)c(Br)c1` [Benzbromarone], the MMP-3 score was 1, the PAI-1 score amounted to 0, the MMP-1 score was 0 and the uPA score was 0.
`C=C1CC[C@H](O)C/C1=C/C=C1\CCC[C@]2(C)[C@@H]([C@H](C)/C=C/[C@H](C)C(C)C)CC[C@@H]12` [Calciferol]: the MMP-3 score was 0, the PAI-1 score was determined as 0, the MMP-1 score was 0 and the uPA score was found to be 1.
Turning to `COc1cc2c(c(OC)c1OC)-c1ccc(OC)c(=O)cc1[C@@H](NC(C)=O)CC2` [Colchicine], the MMP-3 score is on record as 0, the PAI-1 score is recorded as 0, the MMP-1 score worked out at 0 and the uPA score amounted to 0.
For the molecule `O=C(O)c1ccccc1Nc1cccc(C(F)(F)F)c1` [Flufenamic Acid], the MMP-3 score was determined as 0, the PAI-1 score came out at 1, the MMP-1 score is listed as 0 and the uPA score turned out to be 0.
On to `Fc1ccc(C(OCCN2CCN(CCCc3ccccc3)CC2)c2ccc(F)cc2)cc1` [GBR 12909], for which the MMP-3 score is given as 0, the PAI-1 score is given as 0, the MMP-1 score stood at 0 and the uPA score is 0.
On to `CCCCN(CCCC)CCC(O)c1cc2c(Cl)cc(Cl)cc2c2cc(C(F)(F)F)ccc12` (stereo not drawn) [Halofantrine], for which the MMP-3 score is recorded as 0, the PAI-1 score is reported as 1, the MMP-1 score came out at 0 and the uPA score is reported as 0.
As to `CCN(CC)CCNc1ccc(CO)c2sc3ccccc3c(=O)c12` [Hycanthone], the MMP-3 score came to 0, the PAI-1 score is on record as 0, the MMP-1 score is 0 and the uPA score turned out to be 0.
With `O=c1cc(-c2ccc(O)c(O)c2)oc2cc(O)cc(O)c12` [Luteolin], the MMP-3 score is recorded as 0, the PAI-1 score is given as 1, the MMP-1 score amounted to 0 and the uPA score is 0.
For the molecule `COC(=O)Nc1nc2ccc(SC(C)C)cc2[nH]1` [Methiazole], the MMP-3 score amounted to 1, the PAI-1 score is reported as 1, the MMP-1 score is 0 and the uPA score is 0.
For the molecule `C[C@]12C=CC(=O)C=C1CC[C@@H]1[C@@H]2[C@@H](O)C[C@@]2(C)[C@H]1CC[C@]2(O)C(=O)CO` [Prednisolone], the MMP-3 score stood at 0, the PAI-1 score was 0, the MMP-1 score is 0 and the uPA score came out at 0.
Consider `Cc1c(Cl)cccc1Nc1ccccc1C(=O)O` [Tolfenamic Acid], for which the MMP-3 score was found to be 1, the PAI-1 score was determined as 1, the MMP-1 score came out at 0 and the uPA score is given as 0.
With `COc1cc(-c2ccc(=O)[nH]n2)ccc1OC(F)F` [Zardaverine], the MMP-3 score is listed as 0, the PAI-1 score is reported as 1, the MMP-1 score is reported as 0 and the uPA score came out at 0.
As for (R)-(−)-Apomorphine, the MMP-3 score is given as 0, the PAI-1 score is 0, the MMP-1 score was 0 and the uPA score stood at 0.
In the case of Antimycin A, the MMP-3 score was found to be 0, the PAI-1 score was 0, the MMP-1 score is 0 and the uPA score is 1.

For the origin of these results see patent US20100093613A1, “METHODS FOR IDENTIFYING AGENTS AND THEIR USE FOR THE PREVENTION OR STABILIZATION OF FIBROSIS” (priority 2007, published 2010).
